The structures appear in SMILES notation. Starred links: 1 amine or outer side, 2 acyl side, 3 side chain; linkers in the order of their positions; H or OH if unused. Positions of bridges follow the written chain, without caps; N, C: chain ends. Non-standard residues stand in square brackets, D forms with d. Residues, ends and D or L forms follow the SMILES beside them. ξ: configuration not given here. *: point of attachment. X5 = Cn1nc(C(=O)Nc2ccc(-c3ccc(C[C@H](N[*:1])C(=O)[*:2])cc3)cc2)c2ccccc21; dArg(ω-(2S)-2,3-diOHpropyl) = N=C(NCCC[C@@H](N)C(=O)O)NC[C@H](O)CO; Bip(4'-NH) = O=C([C@H](Cc1ccc(-c2ccc(N[*:3])cc2)cc1)N[*:1])[*:2]; X71 = O=C(O)Cn1cc(C[C@H](NC(=O)c2cccc(C(=O)O)c2)C(=O)*)c2ccccc21; dArg(ω-(3-HO-benzyl)) = N=C(NCCC[C@@H](N)C(=O)O)NCc1cccc(O)c1; Indazole3carbonyl(1-CH2COOH) = O=C(O)Cn1nc(C(=O)*)c2ccccc21; Bip(4'-COOH) = N[C@@H](Cc1ccc(-c2ccc(C(=O)O)cc2)cc1)C(=O)O; Bip(4'-NHAc) = CC(=O)Nc1ccc(-c2ccc(C[C@H](N)C(=O)O)cc2)cc1; X87 = N=C(NCCC[C@@H](N[*:1])C(=O)[*:2])NCc1ccc(C(=O)O)cc1; X19 = N=C(NCCC[C@@H](N[*:1])C(=O)[*:2])NCc1ccc2ccccc2c1; Ala(imidazol-2-yl) = N[C@@H](Cc1ncc[nH]1)C(=O)O; Ala(morpholin-4-yl) = N[C@@H](CN1CCOCC1)C(=O)O; Bip = N[C@@H](Cc1ccc(-c2ccccc2)cc1)C(=O)O; Ala(2-furyl) = N[C@@H](Cc1ccco1)C(=O)O; Phe(4-F) = N[C@@H](Cc1ccc(F)cc1)C(=O)O; Tiq1c(1S) = O=C(O)[C@H]1NCCc2ccccc21; h4Pal = N[C@@H](CCc1ccncc1)C(=O)O; Cha = N[C@@H](CC1CCCCC1)C(=O)O; d(αMeP) = C[C@]1(C(=O)O)CCCN1; X50 = O=C(O)COc1ccccc1C(=O)*; ξIle = CC[C@H](C)C(N)C(=O)O; Aze = O=C(O)[C@@H]1CCN1; Sar = CNCC(=O)O

Chain of TNFα (P01375 77-233 limits assumed): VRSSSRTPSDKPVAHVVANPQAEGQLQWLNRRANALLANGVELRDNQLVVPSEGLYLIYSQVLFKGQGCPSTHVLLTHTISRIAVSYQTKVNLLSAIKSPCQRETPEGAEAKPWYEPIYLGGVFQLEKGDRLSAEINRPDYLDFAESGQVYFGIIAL

The first assay addresses TNFα (Homo sapiens, UniProt P01375). As to the kind of experiment: TNF-Induced HEK-Blue Assay. Type of assay: cell-based.
Settings: not given
The term IC50 denotes the concentration at which inhibition is half-maximal. `CC(=O)Nc1ccc(-c2ccc(C[C@@H]3NC(=O)[C@H](Cc4ccc(-c5ccc(C(=O)O)cc5)cc4)NC(=O)[C@H](CC4CCCCC4)NC(=O)CSC[C@@H](C(=O)NCC(N)=O)NC(=O)[C@H](CC(C)C)NC(=O)[C@H](Cc4ccc(O)cc4)NC(=O)[C@H](C(C)C)NC(=O)[C@@H]4c5ccccc5CCN4C(=O)[C@H](C(C)C)NC(=O)[C@@H](CCCNC(=N)N)NC(=O)[C@H](CC(=O)O)NC(=O)[C@@H]4CCCN4C(=O)CN(C)C3=O)cc2)cc1` [Example 278] ({CH2CO}-[Cha][Bip(4'-COOH)][Bip(4'-NHAc)][Sar]PD[dR]V[Tiq1c(1S)]VYLCG-NH2; thioether N-13) registered an IC50 of 50 to 200 nM.

For `CC(C)C[C@@H]1NC(=O)[C@H](CCCNC(=N)N)NC(=O)[C@H](C(C)C)NC(=O)[C@@H]2CCCN2C(=O)[C@H](C(C)C)NC(=O)[C@@H](CCCNC(=N)NCc2ccc(C(=O)O)cc2)NC(=O)[C@H](CC(=O)O)NC(=O)[C@@H]2CCCN2C(=O)CN(C)C(=O)[C@H](Cc2ccc(-c3ccc(NC(=O)c4nn(CC(=O)O)c5ccccc45)cc3)cc2)NC(=O)[C@H](Cc2ccc(-c3ccccc3)cc2)NC(=O)[C@H](CN2CCOCC2)NC(=O)CSC[C@@H](C(=O)NCC(N)=O)NC1=O` [Example 507] ({CH2CO}-[Ala(morpholin-4-yl)][Bip][Bip(4'-NH)](Indazole3carbonyl(1-CH2COOH))[Sar]PD[X87]VPVRLCG-NH2; thioether N-13), the IC50 was less than 50 nM.

For the compound `CC(C)C[C@@H]1NC(=O)[C@H](CCCNC(=N)N)NC(=O)[C@H](C(C)C)NC(=O)[C@@H]2CCCN2C(=O)[C@H](C(C)C)NC(=O)[C@@H](CCCNC(=N)NC[C@H](O)CO)NC(=O)[C@H](CC(=O)O)NC(=O)[C@@H]2CCCN2C(=O)CN(C)C(=O)[C@H](Cc2ccc(-c3ccc(NC(=O)c4nn(CC(=O)O)c5ccccc45)cc3)cc2)NC(=O)[C@H](Cc2ccc(-c3ccccc3)cc2)NC(=O)[C@H](CN2CCOCC2)NC(=O)CSC[C@@H](C(=O)NCC(N)=O)NC1=O` [Example 475] ({CH2CO}-[Ala(morpholin-4-yl)][Bip][Bip(4'-NH)](Indazole3carbonyl(1-CH2COOH))[Sar]PD[dArg(ω-(2S)-2,3-diOHpropyl)]VPVRLCG-NH2; thioether N-13), the IC50 was less than 50 nM.

Compound `CC(C)C[C@@H]1NC(=O)[C@H](Cc2ccc(O)cc2)NC(=O)[C@H](C(C)C)NC(=O)[C@@H]2CCCN2C(=O)[C@H](C(C)C)NC(=O)[C@@H](CCCNC(=N)NCc2cccc(O)c2)NC(=O)[C@H](CC(=O)O)NC(=O)[C@@H]2CCCN2C(=O)CN(C)C(=O)[C@H](Cc2ccc(-c3ccc(NC(=O)c4nn(CC(=O)O)c5ccccc45)cc3)cc2)NC(=O)[C@H](Cc2ccc(-c3ccccc3)cc2)NC(=O)[C@H](CN2CCOCC2)NC(=O)CSC[C@@H](C(=O)NCC(N)=O)NC1=O` [Example 625] ({CH2CO}-[Ala(morpholin-4-yl)][Bip][Bip(4'-NH)](Indazole3carbonyl(1-CH2COOH))[Sar]PD[dArg(ω-(3-HO-benzyl))]VPVYLCG-NH2; thioether N-13) displayed an IC50 of less than 50 nM.

Staying with this assay, now noted: HEK-Blue-CD40L cells, NF-kB-driven secreted alkaline phosphatase reporter; TNFα 0.5 ng/ml; 18 h; read-out: TNF induced HEK-Blue assay IC50 value.
For `CC(C)C[C@@H]1NC(=O)[C@H](CCCNC(=N)N)NC(=O)[C@H](C(C)C)NC(=O)[C@@H]2CCCN2C(=O)[C@H](Cc2ccc(O)cc2)NC(=O)[C@H](CCCNC(=N)N)NC(=O)[C@H](CC(=O)O)NC(=O)[C@@H]2CCCN2C(=O)CN(C)C(=O)[C@H](Cc2ccc(-c3ccccc3)cc2)NC(=O)[C@H](Cc2ccc(-c3ccc(C(=O)O)cc3)cc2)NC(=O)[C@H](CN2CCOCC2)NC(=O)CSC[C@@H](C(=O)NCC(N)=O)NC1=O` [Example 122] ({CH2CO}-[Ala(morpholin-4-yl)][Bip(4'-COOH)][Bip][Sar]PDRYPVRLCG-NH2; thioether N-13), the IC50 lay in the range of 200 to 2000 nM.

`CC(C)C[C@@H]1NC(=O)[C@H](CCCNC(=N)N)NC(=O)[C@H](C(C)C)NC(=O)[C@@H]2CCCN2C(=O)[C@H](Cc2ccc(F)cc2)NC(=O)[C@H](CCCNC(=N)N)NC(=O)[C@H](CC(=O)O)NC(=O)[C@@H]2CCCN2C(=O)CN(C)C(=O)[C@H](Cc2ccc(-c3ccccc3)cc2)NC(=O)[C@H](Cc2ccc(-c3ccccc3)cc2)NC(=O)[C@H](Cc2ccccc2)NC(=O)CSC[C@@H](C(=O)NCC(N)=O)NC1=O` [Example 23] ({CH2CO}-F[Bip][Bip][Sar]PDR[Phe(4-F)]PVRLCG-NH2; thioether N-13): the IC50 is 200 to 2000 nM.

`CC(C)C[C@@H]1NC(=O)[C@H](CCCNC(=N)N)NC(=O)[C@H](C(C)C)NC(=O)[C@@H]2CCCN2C(=O)[C@H](C(C)C)NC(=O)[C@@H](CCCNC(=N)N)NC(=O)[C@H](CC(=O)O)NC(=O)[C@@]2(C)CCCN2C(=O)CN(C)C(=O)[C@H](Cc2ccc(-c3ccccc3)cc2)NC(=O)[C@H](Cc2ccc(-c3ccccc3)cc2)NC(=O)[C@H](CN2CCOCC2)NC(=O)CSC[C@@H](C(=O)NCC(N)=O)NC1=O` [Example 103] ({CH2CO}-[Ala(morpholin-4-yl)][Bip][Bip][Sar][d(αMeP)]D[dR]VPVRLCG-NH2; thioether N-13): the IC50 was 200 to 2000 nM.

With `CC[C@H](C)[C@@H]1NC(=O)[C@@H](CCCNC(=N)N)NC(=O)[C@H](CC(=O)O)NC(=O)[C@H](Cc2cnc[nH]2)NC(=O)CN(C)C(=O)[C@H](Cc2ccc(-c3ccc(NC(=O)[C@H](Cc4cn(CC(=O)O)c5ccccc45)NC(=O)c4cccc(C(=O)O)c4)cc3)cc2)NC(=O)[C@H](Cc2ccc(-c3ccccc3)cc2)NC(=O)[C@H](CC2CCCCC2)NC(=O)CSC[C@@H](C(=O)NCC(N)=O)NC(=O)[C@H](CC(C)C)NC(=O)[C@H](Cc2ncc[nH]2)NC(=O)[C@H](C(C)C)NC(=O)[C@@H]2CCCN2C1=O` [Example 415] ({CH2CO}-[Cha][Bip][Bip(4'-NH)](X71)[Sar]HD[dR]IPV[Ala(imidazol-2-yl)]LCG-NH2; thioether N-13), the IC50 fell in the range of 50 to 200 nM.

Take `CC[C@H](C)C1NC(=O)CSC[C@@H](C(=O)NCC(N)=O)NC(=O)[C@H](CC(C)C)NC(=O)[C@H](CCCNC(=N)N)NC(=O)[C@H](C(C)C)NC(=O)[C@@H]2CCCN2C(=O)[C@H](C(C)C)NC(=O)[C@H](CCCNC(=N)N)NC(=O)[C@H](CC(=O)O)NC(=O)[C@@H]2CCCN2C(=O)CN(C)C(=O)[C@H](Cc2ccc(-c3ccccc3)cc2)NC(=O)[C@H](Cc2ccc(-c3ccccc3)cc2)NC1=O` (stereo partly drawn) [Example 7] ({CH2CO}-[ξIle][Bip][Bip][Sar]PDRVPVRLCG-NH2; thioether N-13): the IC50 fell in the range of 200 to 2000 nM.

`CC(=O)Nc1ccc(-c2ccc(C[C@@H]3NC(=O)[C@H](Cc4ccc(-c5ccc(C(=O)O)cc5)cc4)NC(=O)[C@H](CN4CCOCC4)NC(=O)CSC[C@@H](C(=O)NCC(N)=O)NC(=O)[C@H](CC(C)C)NC(=O)[C@H](Cc4cnc[nH]4)NC(=O)[C@H](C(C)C)NC(=O)[C@@H]4CCCN4C(=O)[C@H](C(C)C)NC(=O)[C@@H](CCCNC(=N)N)NC(=O)[C@H](CC(=O)O)NC(=O)[C@H](Cc4ccco4)NC(=O)CN(C)C3=O)cc2)cc1` [Example 520] ({CH2CO}-[Ala(morpholin-4-yl)][Bip(4'-COOH)][Bip(4'-NHAc)][Sar][Ala(2-furyl)]D[dR]VPVHLCG-NH2; thioether N-13): the IC50 is less than 50 nM.

`CC(C)C[C@@H]1NC(=O)[C@H](CCCNC(=N)N)NC(=O)[C@H](C(C)C)NC(=O)[C@@H]2CCCN2C(=O)[C@H](CCc2ccncc2)NC(=O)[C@H](CCCNC(=N)N)NC(=O)[C@H](CC(=O)O)NC(=O)[C@@H]2CCCN2C(=O)CN(C)C(=O)[C@H](Cc2ccc(-c3ccccc3)cc2)NC(=O)[C@H](Cc2ccc(-c3ccccc3)cc2)NC(=O)[C@H](Cc2ccccc2)NC(=O)CSC[C@@H](C(=O)NCC(N)=O)NC1=O` [Example 24] ({CH2CO}-F[Bip][Bip][Sar]PDR[h4Pal]PVRLCG-NH2; thioether N-13): the concentration for half-maximal inhibition (IC50) is 200 to 2000 nM.

Regarding `CC(C)C[C@@H]1NC(=O)[C@H](Cc2ccc(O)cc2)NC(=O)[C@H](C(C)C)NC(=O)[C@@H]2CCN2C(=O)[C@H](CC(N)=O)NC(=O)[C@@H](CCCNC(=N)N)NC(=O)[C@H](CC(=O)O)NC(=O)[C@H](Cc2ccc(O)cc2)NC(=O)CN(C)C(=O)[C@H](Cc2ccc(-c3ccccc3)cc2)NC(=O)[C@H](Cc2ccc(-c3ccc(C(=O)O)cc3)cc2)NC(=O)[C@H](CN2CCOCC2)NC(=O)CSC[C@@H](C(=O)NCC(N)=O)NC1=O` [Example 145] ({CH2CO}-[Ala(morpholin-4-yl)][Bip(4'-COOH)][Bip][Sar]YD[dR]N[Aze]VYLCG-NH2; thioether N-13), the IC50 is less than 50 nM.

On to `CC[C@H](C)[C@@H]1NC(=O)[C@@H]2CCCN2C(=O)[C@H]([C@@H](C)CC)NC(=O)[C@@H](CCCNC(=N)N)NC(=O)[C@H](CC(=O)O)NC(=O)[C@@H]2CCCN2C(=O)CN(C)C(=O)[C@H](Cc2ccc(-c3ccc(NC(C)=O)cc3)cc2)NC(=O)[C@H](Cc2ccc(-c3ccc(C(=O)O)cc3)cc2)NC(=O)[C@H](CC2CCCCC2)NC(=O)CSC[C@@H](C(=O)NCC(N)=O)NC(=O)[C@H](CC(C)C)NC(=O)[C@H](Cc2ccc(O)cc2)NC1=O` [Example 286] ({CH2CO}-[Cha][Bip(4'-COOH)][Bip(4'-NHAc)][Sar]PD[dR]IPIYLCG-NH2; thioether N-13), for which the IC50 was in the range of 50 to 200 nM.

Regarding `CC(C)C[C@@H]1NC(=O)[C@H](CCCNC(=N)N)NC(=O)[C@H](C(C)C)NC(=O)[C@@H]2CCCN2C(=O)[C@H](C(C)C)NC(=O)[C@@H](CCCNC(=N)NCc2ccc3ccccc3c2)NC(=O)[C@H](CC(=O)O)NC(=O)[C@@H]2CCCN2C(=O)CN(C)C(=O)[C@H](Cc2ccc(-c3ccc(NC(=O)c4nn(C)c5ccccc45)cc3)cc2)NC(=O)[C@H](Cc2ccc(-c3ccccc3)cc2)NC(=O)[C@H](CN2CCOCC2)NC(=O)CSC[C@@H](C(=O)NCC(N)=O)NC1=O` [Example 472] ({CH2CO}-[Ala(morpholin-4-yl)][Bip][X5][Sar]PD[X19]VPVRLCG-NH2; thioether N-13), the IC50 was 50 to 200 nM.

`CC[C@H](C)[C@@H]1NC(=O)[C@@H](CCCNC(=N)N)NC(=O)[C@H](CC(=O)O)NC(=O)[C@H](Cc2cnc[nH]2)NC(=O)CN(C)C(=O)[C@H](Cc2ccc(-c3ccc(NC(=O)c4ccccc4OCC(=O)O)cc3)cc2)NC(=O)[C@H](Cc2ccc(-c3ccccc3)cc2)NC(=O)[C@H](CC2CCCCC2)NC(=O)CSC[C@@H](C(=O)NCC(N)=O)NC(=O)[C@H](CC(C)C)NC(=O)[C@H](Cc2cnc[nH]2)NC(=O)[C@H](C(C)C)NC(=O)[C@@H]2CCCN2C1=O` [Example 329] ({CH2CO}-[Cha][Bip][Bip(4'-NH)](X50)[Sar]HD[dR]IPVHLCG-NH2; thioether N-13): the IC50 is less than 50 nM.
